Measured values taken from patent US7351546B2, “Flow cytometric, whole blood dendritic cell immune function assay” (Becton, Dickinson and Company, priority 1998, dated 2008).
Entries after “also recorded” stand apart in the source; their conditions may differ.

Legend:
Format in all cases: cell-based, human
CD11c^− DCs = settings: CD11c− subset; whole blood; activator 4 hours at 37° C. without Brefeldin A
Description: (§1) Venous blood of normal donors was collected in sodium heparin […]® tubes. For activation with LPS, the blood was stimulated with 1 μg/mL LPS. […] PMA was then added at 5 ng/mL and ionomycin at 1 μg/mL. For activation by CD40 crosslinking, 50 μL CD40-coated polystyrene beads was added to 1 mL whole blood. All samples were incubated for four hours at 37° C. in a humidified incubator with 5% CO2.
For detection of changes in surface antigen expression, samples were incubated with DC activator, as above, without the further addition of BFA. Control (resting) aliquots were incubated with neither BFA nor activator.
Cell preparation was done at room temperature (RT) and all incubation steps were performed in the dark.
For staining, 150 μL of sample (activated or resting blood control) was added to a cocktail of monoclonal antibodies in a staining tube.
After incubation, 3 mL of FACS® Lysing Solution was added and the tube incubated for 10 min at RT. The lysed cells were centrifuged for 5 min at 500×g and subsequently washed with 3 mL buffer (DPBS 1×, 0.5% fetal calf serum). The cell pellet was resuspended in 250 μL buffer and immediately acquired on a flow cytometer. If data acquisition was delayed, the cells were maintained at 4° C. for up to one hour.
The samples as described above were acquired on a FACSCalibur™ dual laser flow cytometer (BDIS, San Jose, Calif.). […]

CD11c^+CD123^low DCs = settings: CD11c+ subset; whole blood; activator 4 hours at 37° C. with Brefeldin A
Description: as §1
(§2) For detection of intracellular cytokines, activation, as above, was performed in the presence additionally of Brefeldin A (BFA) at 10 μg/mL. Control (resting) aliquots were incubated with BFA alone.
(§3) Cell preparation was done at room temperature (RT), and all incubation steps were performed in the dark.
(§4) For staining, 1 mL of sample (activated or resting blood control) was added to a cocktail of dendritic cell-distinguishing antibodies (20 μL lineage cocktail 1-FITC, 10 μL HLA-DR PerCP, 5 μL CD11c APC; reagent volumes per 50 μL blood) in a 50 mL polypropylene centrifuge tube. The blood was incubated in the presence of the fluorophore-conjugated antibodies for 15 min. After incubation, 40 mL FACS® Lysing Solution was added and the tube incubated for a further 10 min. The cells were then collected by centrifugation for 10 min at 500×g, and the pellet gently broken off for further processing. Next, 10 mL FACS® Permeabilizing Solution was added and the cells were incubated for 10 min. […]

CD11c^−CD123^+ DCs = settings: CD11c−CD123+ subset; whole blood
Description: as §1, §2, §3, §4

CD11c^+ DCs = test: Cytokine kinetic assay in LPS activated CD11c+ DCs; settings: 1 μg/ml LPS, time course 0 to 8 hours
Description: The time course of LPS incubation was 0 to 8 hours. Intracellular cytokine and CD80 expression is measured as PE mean fluorescence intensity (MFI).
Whole blood was stimulated with 1 μg/ml LPS and incubated in polypropylene tubes (12×75 mm) at 37° C. in a humidified atmosphere containing 5% CO2. Aliquots were processed, essentially as set forth in Examples 1 and 2 above, every hour from 0 to 8 hrs post stimulation. One hour prior to each sample harvest, BFA was added at 10 μg/mL.

monocytes = settings: activated whole blood with BFA
Description: The cytokine expression of monocytes was evaluated in some of the same samples. Monocytes were identified based on their scatter characteristics, their bright lin 1 FITC, anti-HLA-DR PerCP and CD11c APC staining. […] Intracellular protein secretion is evaluated as PE mean fluorescence intensity (MFI).

For Lipopolysaccharide [LPS], the “CD80 change in surface expression (ratio of MFI activated versus control)” value (CD11c^− DCs) was “upregulation; also recorded: strongest signal”, the “CD86 change in surface expression (ratio of MFI activated versus control)” value (CD11c^− DCs) was “upregulation” and the “IL-12 expression (intracellular, MFI)” value (CD11c^+CD123^low DCs) was “trace levels”. For the same substance, the “production of any of the tested cytokines” value (CD11c^−CD123^+ DCs) was “absence of detectable cytokine production; also recorded: fail to respond”, the “order of cytokine production (kinetics of the response)” value (CD11c^+ DCs) was “TNFα is produced first, followed by IL-1β and IL-6” and the “time of activation after which CD80 is intensely upregulated” value (CD11c^+ DCs) was “about 4 hours”. For the same substance, the “cytokine expression of monocytes compared with CD11c+ DCs (PE MFI)” value (monocytes) was “higher levels; also recorded: much more potently”.
